The results in this text go back to PubChem BioAssay (NCI).

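These data come from cells grown in 96-well plates and exposed to compound for 48 hours at five concentrations. Definition used: TGI = concentration required for complete inhibition of growth.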 Bounds are passed on as bounds.

Test systems include MOLT-4 leukemia; KM12 colon; SNB-75 CNS; RXF 393 renal; RPMI-8226 leukemia; K-562 leukemia; SK-MEL-28 melanoma; SK-MEL-5 melanoma; A498 renal; UO-31 renal; MDA-MB-231 breast; UACC-62 melanoma; HOP-92 NSCLC; MCF7 breast.
Assay in all cases: NCI anticancer screen, dose series, 48 h

Consider `CCOC(=O)NC(Nc1ccc(F)cc1)(C(=O)OCC)C(F)(F)F` (stereo not drawn), for which the TGI in the experiment on MOLT-4 leukemia, with KM12 colon, in the experiment on SNB-75 CNS, with RXF 393 renal, with RPMI-8226 leukemia and in the experiment on K-562 leukemia was over 100 µM in each case. Also, the TGI with SK-MEL-28 melanoma, in the experiment with SK-MEL-5 melanoma, in the experiment on A498 renal, in the experiment on UO-31 renal, with MDA-MB-231 breast and with UACC-62 melanoma was over 100 µM in each case. Besides, the TGI in the experiment with HOP-92 NSCLC and with MCF7 breast was over 100 µM in each case.
`CC1=CC[C@@]2(C)CC[C@](O)(C(C)C)C2C(OC(=O)c2ccccc2)C1` (stereo partly drawn): the TGI with MOLT-4 leukemia stood at 43.5 µM; with KM12 colon it was 40.3 µM; in the experiment with SNB-75 CNS, 35.8 µM; in the experiment with RXF 393 renal, 27.3 µM; in the experiment with RPMI-8226 leukemia, 37.2 µM; in the experiment on K-562 leukemia, 47.8 µM. For the same compound, the TGI in the experiment on SK-MEL-28 melanoma amounted to 58.4 µM; in the experiment with SK-MEL-5 melanoma, 34.9 µM; in the experiment on A498 renal, 50.8 µM; in the experiment on UO-31 renal, 32.6 µM; in the experiment on MDA-MB-231 breast, 37.6 µM; with HOP-92 NSCLC, 29.7 µM. Also, the TGI with MCF7 breast is 34.4 µM.
For the compound `CC(C)(Cl)C(Br)CCC(Br)(CCl)C(Cl)CBr` (stereo not drawn), the TGI in the experiment on MOLT-4 leukemia, with KM12 colon, in the experiment with SNB-75 CNS, with RXF 393 renal, in the experiment on RPMI-8226 leukemia and in the experiment with K-562 leukemia was over 10 µM each time. Besides, the TGI in the experiment with SK-MEL-28 melanoma, in the experiment with SK-MEL-5 melanoma, with A498 renal, in the experiment with UO-31 renal, with MDA-MB-231 breast and with HOP-92 NSCLC was over 10 µM in each case. In the experiment with MCF7 breast, the TGI was over 10 µM.
For the compound `Cc1cc2nc3ccccc3n2c2nc(N)ccc12`, the TGI was over 100 µM in the experiment on MOLT-4 leukemia; over 100 µM in the experiment with KM12 colon; over 100 µM in the experiment with SNB-75 CNS; over 100 µM in the experiment on RXF 393 renal; 70.2 µM in the experiment on RPMI-8226 leukemia; over 100 µM with K-562 leukemia. For the same compound, the TGI with SK-MEL-5 melanoma is 40.2 µM; in the experiment on A498 renal, over 100 µM; in the experiment with UO-31 renal, over 100 µM; with MDA-MB-231 breast, over 100 µM; with UACC-62 melanoma it was over 100 µM; in the experiment on HOP-92 NSCLC it was 69 µM. Moreover, the TGI in the experiment with MCF7 breast was over 100 µM.
Take `CN(C)c1c(C2OC(CO)C(O)C2O)c(=O)c1=O` (stereo not drawn): the TGI in the experiment with MOLT-4 leukemia, with KM12 colon, in the experiment with SNB-75 CNS, with RXF 393 renal, in the experiment with RPMI-8226 leukemia and with K-562 leukemia was over 100 µM throughout. The TGI with SK-MEL-28 melanoma, in the experiment with A498 renal, with UO-31 renal, with MDA-MB-231 breast, in the experiment with UACC-62 melanoma and with HOP-92 NSCLC was over 100 µM throughout. The same compound registered a TGI in the experiment on MCF7 breast of over 100 µM.
On to `CC(=O)NC(NCCN)(c1ccccc1)c1ccccc1`, for which the TGI with MOLT-4 leukemia, in the experiment on KM12 colon, in the experiment with SNB-75 CNS, with RXF 393 renal, with RPMI-8226 leukemia and in the experiment with K-562 leukemia was over 100 µM in each case. Besides, the TGI with SK-MEL-28 melanoma, in the experiment on SK-MEL-5 melanoma, in the experiment with A498 renal, in the experiment with UO-31 renal, in the experiment with MDA-MB-231 breast and in the experiment on HOP-92 NSCLC was over 100 µM in each case. Further, in the experiment on MCF7 breast, the TGI was over 100 µM.
`CC(Nc1ccc(Cl)c(Cl)c1)c1ccncc1` (stereo not drawn): the TGI in the experiment on MOLT-4 leukemia was over 100 µM; in the experiment with KM12 colon, 40.1 µM; in the experiment on SNB-75 CNS, 97.7 µM; in the experiment on RXF 393 renal, 54.3 µM; with RPMI-8226 leukemia, 28.7 µM; in the experiment with K-562 leukemia, over 100 µM. For the same compound, the TGI is over 100 µM with SK-MEL-28 melanoma; 30.3 µM in the experiment with SK-MEL-5 melanoma; 61 µM with A498 renal; 31.1 µM in the experiment with UO-31 renal; 45.1 µM in the experiment on MDA-MB-231 breast; 54.8 µM in the experiment with HOP-92 NSCLC. Also, the TGI in the experiment with MCF7 breast was over 100 µM.
As to `CCOC(=O)c1nc2ccc(C(F)(F)F)cc2nc1NCc1ccc(OC)c(OC)c1`, the TGI in the experiment on MOLT-4 leukemia, in the experiment with KM12 colon, in the experiment with SNB-75 CNS, with RXF 393 renal, with RPMI-8226 leukemia and in the experiment on K-562 leukemia was over 100 µM each time. The TGI in the experiment on SK-MEL-5 melanoma, in the experiment with A498 renal, in the experiment with UO-31 renal, in the experiment with MDA-MB-231 breast, with UACC-62 melanoma and with HOP-92 NSCLC was over 100 µM each time. Further, in the experiment on MCF7 breast, the TGI was over 100 µM.
In the case of `CCCCCc1c(CCCC)c(=O)[nH]c2nc(NC(=O)CCCC)ccc12`, the TGI in the experiment with MOLT-4 leukemia, with KM12 colon, in the experiment with SNB-75 CNS, with RXF 393 renal, in the experiment with RPMI-8226 leukemia and in the experiment on K-562 leukemia was over 100 µM in each case. The TGI in the experiment on SK-MEL-28 melanoma, in the experiment with SK-MEL-5 melanoma, with A498 renal, in the experiment on UO-31 renal, in the experiment on MDA-MB-231 breast and in the experiment on HOP-92 NSCLC was over 100 µM each time. Also, the TGI in the experiment on MCF7 breast was over 100 µM.
